Data: patent US20210196714A1, “COMPOSITIONS AND METHODS FOR TREATING DISORDERS CHARACTERIZED WITH ABERRANT RAS/MAPK SIGNALING” (Duke University, priority 2018, published 2021)
Entries after “also recorded” stand apart in the source; their conditions may differ.

Tested on: kmt2d+/−×kmt2d+/− progeny
Test: Neural differentiation (sox2/huc staining) in stable kmt2d mutant
Assay type: in vivo, zebrafish
Settings: 100 mM dmDf, 2 dpf
Text: FIG. 12: Treatment with dmDf rescues the defects of stable kmt2d mutant. kmt2d+/− adults were in-crossed and the embryos were then collected at 1 dpf, 2 dpf and 5 dpf to assess dmDf efficacy. […] Error bars show SEM (standard error of the mean).
Although the small molecule testing data in CRISPR F0 mosaic models are consistent with morphant phenotypes (and rescue), experiments recognized the necessity of testing the potential efficacy of dmDf in a stable genetic model that is a better genotypic proxy to human patients. […] In addition to examining proliferation of cells in the brain, experiments assessed whether neural differentiation is affected (see, Van Laarhoven, P. M. et al. Hum Mol Genet 24, 4443-53 (2015)).
For convergence and extension (CE) phenotyping, embryos were scored as described (see, Leitch, C. C. et al. Nat Genet 40, 443-8 (2008)) at the 8-10 somite stage, and images were captured using an AZ100 microscope and NIS Elements software (Nikon). […] The distance between Meckel's (MK) and ceratohyal (CH) cartilages was measured on ventral bright field images with Image J (NIH). […] Fluorescence signal on embryo heads was imaged with the Nikon AZ100 microscope and DS-Qi1MC digital camera using […] Z-stacks to generate extended depth of focus images. Cell numbers were quantified using the ImageJ ICTN plugin (NIH). […]

In the case of `CC(C)c1nc(-c2cccc(NS(=O)(=O)c3c(F)cccc3F)c2F)c(-c2ccnc(N)n2)s1` [Compound 8, desmethyl-Dabrafenib], the “perturbed differentiation (organization of sox2+ and huc+ cells)” value is reported as “appears to ameliorate; also recorded: attenuated this pathology”.
